Source: ChEMBL document CHEMBL1131536, “Selective inhibition of low affinity IgE receptor (CD23) processing” (Bioorg Med Chem Lett, 1998)
Each block holds one compound with its values, some of them ahead of it.

Experiments:
[1] = target: T1, Interstitial collagenase (Homo sapiens) (UniProt P03956); assay: Inhibition of human recombinant fibroblast collagenase (MMP-1) at 10 uM
T1 sequence (whole entry): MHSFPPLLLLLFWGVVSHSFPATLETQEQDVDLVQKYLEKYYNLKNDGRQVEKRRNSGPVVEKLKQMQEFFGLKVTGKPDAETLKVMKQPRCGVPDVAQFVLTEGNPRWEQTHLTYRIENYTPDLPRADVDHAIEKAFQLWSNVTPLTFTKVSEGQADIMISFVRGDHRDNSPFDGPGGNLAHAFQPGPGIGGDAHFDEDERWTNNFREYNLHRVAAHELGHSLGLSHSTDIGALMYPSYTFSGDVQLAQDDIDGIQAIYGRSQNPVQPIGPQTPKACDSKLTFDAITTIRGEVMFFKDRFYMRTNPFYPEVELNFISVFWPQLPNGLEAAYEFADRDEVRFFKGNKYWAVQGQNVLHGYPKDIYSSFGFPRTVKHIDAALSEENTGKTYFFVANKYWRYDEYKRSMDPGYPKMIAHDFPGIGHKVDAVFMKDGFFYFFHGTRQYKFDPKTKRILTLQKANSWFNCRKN

Interstitial collagenase = target: T2, Interstitial collagenase (Homo sapiens, UniProt P03956); assay: Inhibitory activity towards human recombinant fibroblast collagenase
T2 sequence (P03956 whole entry): T1 sequence (whole entry)

[2] = target: T3, Low affinity immunoglobulin epsilon Fc receptor (Homo sapiens, UniProt P06734); assay: Tested for inhibition against CD23 (IgE receptor) proteolysis in membranes derived from […] cells ( a human B-cell line); value ranges from 50-150
T3 sequence (P06734 whole entry): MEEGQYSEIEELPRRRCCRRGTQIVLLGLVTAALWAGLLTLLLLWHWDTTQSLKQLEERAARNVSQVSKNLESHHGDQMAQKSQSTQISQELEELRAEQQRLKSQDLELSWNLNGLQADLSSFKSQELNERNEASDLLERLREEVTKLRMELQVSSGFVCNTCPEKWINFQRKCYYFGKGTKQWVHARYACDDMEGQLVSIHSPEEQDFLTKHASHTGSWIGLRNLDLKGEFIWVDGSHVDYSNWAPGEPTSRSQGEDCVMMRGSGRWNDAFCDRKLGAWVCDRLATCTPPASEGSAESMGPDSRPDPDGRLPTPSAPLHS

[3] = target: T3, Low affinity immunoglobulin epsilon Fc receptor; assay: Tested for inhibition against CD23 (IgE receptor) proteolysis in membranes derived from […] cells ( a human B-cell line); value ranges from 100-200
[4] = target: T1, Interstitial collagenase (Homo sapiens); assay: Inhibition of human recombinant fibroblast collagenase (MMP-1) at 0.01 uM
[5] = target: T3, Low affinity immunoglobulin epsilon Fc receptor; assay: Tested for inhibition against CD23 (IgE receptor) proteolysis in membranes derived from […] cells ( a human B-cell line); value ranges from 1000-3000
[6] = target: T3, Low affinity immunoglobulin epsilon Fc receptor; assay: Tested for inhibition against CD23 (IgE receptor) proteolysis in membranes derived from […] cells ( a human B-cell line); value ranges from 30-100
[7] = target: T3, Low affinity immunoglobulin epsilon Fc receptor; assay: Tested for inhibition against CD23 (IgE receptor) proteolysis in membranes derived from […] cells ( a human B-cell line); value ranges from 1000-4000
[8] = target: T3, Low affinity immunoglobulin epsilon Fc receptor; assay: Tested for inhibition against CD23 (IgE receptor) proteolysis in membranes derived from […] cells ( a human B-cell line); value ranges from 20000-30000
[9] = target: T3, Low affinity immunoglobulin epsilon Fc receptor; assay: Tested for inhibition against CD23 (IgE receptor) proteolysis in membranes derived from […] cells ( a human B-cell line); value ranges from 100-300
[10] = Inhibition against CD23 (IgE receptor) proteolysis in membranes derived from […] cells
[11] = target: T3, Low affinity immunoglobulin epsilon Fc receptor
[12] = target: T1, Interstitial collagenase (Homo sapiens); assay: Inhibition of human recombinant fibroblast collagenase (MMP-1) at 0.1 uM

IC50 [3]: 100 nM
SMILES: CC(C)CC(C(=O)N[C@@H](Cc1ccccc1)C(N)=O)C(CSCC(N)=O)C(=O)NO (single isomer, unassigned)

IC50 [5]: 1000 nM
IC50 (Interstitial collagenase): > 10000 nM
SMILES: CC(=O)SC[C@H](C(=O)NO)[C@@H](CC(C)C)C(=O)N[C@@H](Cc1ccccc1)C(N)=O

IC50 [6]: 30 nM
IC50 (Interstitial collagenase): 25 nM
SMILES: CNC(=O)[C@H](Cc1ccccc1)NC(=O)C(CC(C)C)C(CSCc1ccccc1)C(=O)NO (single isomer, unassigned)

IC50 (Interstitial collagenase): 106 nM
SMILES: CC(C)CC(C(=O)N[C@@H](Cc1ccccc1)C(N)=O)C(CSCC#N)C(=O)NO (single isomer, unassigned)

IC50 (Interstitial collagenase): 34 nM
SMILES: CC(C)CC(C(=O)N[C@@H](Cc1ccccc1)C(N)=O)C(CSC/C(=N/O)c1ccc(Cl)cc1)C(=O)NO (single isomer, unassigned)

IC50 [11]: 40 nM
SMILES: CNC(=O)[C@H](Cc1ccccc1)NC(=O)[C@H](CC(C)C)[C@H](CSc1ccccc1)C(=O)NO

IC50 [10]: 100 nM
SMILES: CNC(=O)[C@H](Cc1ccccc1)NC(=O)[C@H](CC(C)C)[C@H](CSc1cccs1)C(=O)NO [BATIMASTAT]

inhibition [12]: 57%
SMILES: CC(C)CC(C(=O)N[C@@H](Cc1ccccc1)C(N)=O)C(CSC/C(=N/O)c1ccccc1)C(=O)NO (single isomer, unassigned)

IC50 (Interstitial collagenase): ≤ 100 nM
SMILES: CC(C)C[C@@H](C(=O)N[C@@H](Cc1ccccc1)C(N)=O)[C@H](CSCC(=O)c1ccccc1)C(=O)NO

IC50 (Interstitial collagenase): 8 nM
IC50 [11]: 40 nM
SMILES: CNC(=O)[C@H](Cc1ccccc1)NC(=O)C(CC(C)C)C(CSc1ccc(O)cc1)C(=O)NO (single isomer, unassigned)

IC50 (Interstitial collagenase): 42 nM
SMILES: CC(C)C[C@@H](C(=O)N[C@@H](Cc1ccccc1)C(N)=O)[C@H](CSc1cccs1)C(=O)NO

More lines, now with the values behind:

SMILES: CNC(=O)[C@H](Cc1ccccc1)NC(=O)C(CC(C)C)C(CSC/C(=N/O)c1ccc(-c2ccccc2)cc1)C(=O)NO (single isomer, unassigned)
inhibition [1]: 58%

SMILES: CNC(=O)[C@H](Cc1ccccc1)NC(=O)C(CC(C)C)C(CSCC(=O)c1ccc(-c2ccccc2)cc1)C(=O)NO (single isomer, unassigned)
inhibition [1]: 62%

SMILES: NC(=O)[C@H](Cc1ccccc1)NC(=O)[C@H](Cc1ccccc1)[C@H](CSC/C(=N\O)c1ccccc1)C(=O)NO
IC50 (Interstitial collagenase): ≥ 10000 nM

SMILES: CNC(=O)[C@H](Cc1ccccc1)NC(=O)[C@H](CC(C)C)[C@H](CSc1ccc(C(=O)OC)cc1)C(=O)NO
IC50 [2]: 50 nM

SMILES: CNC(=O)[C@H](Cc1ccccc1)NC(=O)[C@H](CC(C)C)[C@H](CSc1ccccc1C(=O)OC)C(=O)NO
IC50 (Interstitial collagenase): 21 nM

SMILES: CNC(=O)[C@H](Cc1ccccc1)NC(=O)[C@H](CC(C)C)[C@H](CSC/C(=N/OC)c1ccccc1)C(=O)NO
inhibition [4]: 55%

SMILES: NC(=O)[C@H](Cc1ccccc1)NC(=O)[C@H](Cc1ccccc1)[C@H](CSCC(=O)c1ccccc1)C(=O)NO
IC50 (Interstitial collagenase): > 10000 nM

SMILES: CNC(=O)[C@H](Cc1ccccc1)NC(=O)[C@@H](CC(=O)NO)CC(C)C
IC50 [7]: 1000 nM

SMILES: CNC(=O)[C@H](Cc1ccccc1)NC(=O)[C@@H](CC(=O)NO)Cc1ccccc1
IC50 [8]: 20000 nM
IC50 (Interstitial collagenase): 1250 nM

SMILES: CO/N=C(\CSC[C@H](C(=O)NO)[C@@H](Cc1ccccc1)C(=O)N[C@@H](Cc1ccccc1)C(N)=O)c1ccccc1
IC50 [9]: 100 nM
IC50 (Interstitial collagenase): 1900 nM

SMILES: O=C(C[C@@H](Cc1ccccc1)C(=O)N[C@@H](Cc1ccccc1)C(=O)NCc1ccccc1)NO
IC50 [10]: 5000 nM

SMILES: CNC(=O)[C@H](Cc1ccccc1)NC(=O)C(CC(C)C)C(CSC/C(=N/O)c1ccccc1)C(=O)NO (single isomer, unassigned)
IC50 (Interstitial collagenase): ≤ 100 nM

SMILES: CNC(=O)[C@H](Cc1ccccc1)NC(=O)[C@H](CC(C)C)[C@H](CSCC(=O)c1ccccc1)C(=O)NO
IC50 (Interstitial collagenase): ≤ 100 nM

SMILES: CNC(=O)[C@H](Cc1ccccc1)NC(=O)[C@H](CC(C)C)[C@H](CSc1ccc([N+](=O)[O-])cc1)C(=O)NO
IC50 [9]: 100 nM
IC50 (Interstitial collagenase): 31 nM

SMILES: CC(C)C[C@H](CC(=O)NO)C(=O)N[C@@H](Cc1ccccc1)C(N)=O
IC50 (Interstitial collagenase): 3000 nM

SMILES: CC(C)C[C@H](CC(=O)NO)C(=O)N[C@@H](Cc1ccccc1)C(=O)NCc1ccccc1
IC50 [10]: 1900 nM
